Values quoted from earlier work as cited in PMC6054295 (Infection and Drug Resistance, 2018).
Where no end group is shown, it is not given here.

Legend:
[1] = test system: 3T3 cells
[2] = test system: MEWO cells
[3] = test system: P. aeruginosa; conditions: at concentrations > 100 μM

Substance	cytotoxicity [1]	cytotoxicity [2]	antibacterial activity [3]	concentration at which it behaves as a membrane-disrupting peptide
N-APPGARPPPGPPPPGPPPPGP-C [SP-B]	noncytotoxic	noncytotoxic	negligible antibacterial activity	
indolicidin: a proline- and tryptophan-rich peptide (ILPWKWPWWPWRR; ends and bridges not checked; UniProt P33046 131-143, looked up)				> 2.6 µM
